Results as given in US5482867A, “Spatially-addressable immobilization of anti-ligands on surfaces” (Affymax Technologies N.V., priority 1993, dated 1996).
Entries after “also recorded” stand apart in the source; their conditions may differ.

How the values were obtained:
[1] = Chromatographic (reverse-phase HPLC) evidence for photoremoval of the NVOC group in solution; format: physicochemical; details: 100 mM, two minutes, 1 watt/cm^2, 500 W Hg(Xe) arc lamp, 305 nm long pass filter; NVOC-biotin-ONP in acetonitrile, biotin in water
Description: The cuvette was irradiated for two minutes at a power of 1 watt/cm^2 with a 500 W Hg(Xe) arc lamp (Oriel #66142) having a 305 nm long pass filter (Oriel #51450). Illuminated and non-illuminated samples were then subjected to reverse-phase HPLC.

Avidin [2] = target: T1, Avidin (Streptomyces avidinii, UniProt P22629); details: SBS: Avidin; cited from earlier work
T1 sequence (P22629 25-183): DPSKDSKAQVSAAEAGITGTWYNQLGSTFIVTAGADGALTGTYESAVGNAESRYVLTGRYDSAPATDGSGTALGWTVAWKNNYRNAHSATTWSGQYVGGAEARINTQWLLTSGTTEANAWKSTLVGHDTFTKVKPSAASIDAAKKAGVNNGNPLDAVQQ

streptavidin [3] = target: T2, streptavidin (Streptomyces avidinii, UniProt P22629); assay: Scanning fluorescence imaging of Fluorescein-Streptavidin binding to caged-biotin glass slides after photodeprotection; details: NPOC, caproic-propyl spacer
T2 construct: purchased Amersham
T2 sequence (P22629 25-183): as above
Protocol: Commercially available glass microscope slides were derivatized with N-BOC-aminopropyltriethoxy silane according to literature procedures (for example, see J. Chromatography, 1974, Vol. 97, p. 33). The slides were incubated in a solution of 20% trifluoroacetic acid in methylene chloride for 30 minutes to remove the BOC protecting group. After washing sequentially with methylene chloride, dimethylformamide, and ethanol, the slides were neutralized by immersing in a solution of 10% diisopropylethyl amine in methylene chloride for 30 minutes and further washed with methylene chloride.
N-BOC-6-aminocaproic acid was converted to the BOP-activated ester in preparation for reaction with the derivatized glass slide. […]
[…], as described in the Example I, was mounted on a custom flow cell and illuminated through a 500 μm×500 μm checkerboard-pattern mask (Photo Sciences Inc., Torrance, Calif.) using broad-band UV/blue light. The light source was a 500 W Mercury arc lamp (Oriel Model 87330) equipped with a 350 nm-450 nm dichroic reflector and produced actinic light having an intensity of 12 mW/cm^2 as measured through a 360 nm bandpass filter. […]

Avidin [4] = target: T1, Avidin; assay: Blocking of subsequent 3H-biotin binding in streptavidin-treated microtiter wells
Protocol: All procedures using NVOC-biotin-OMe were conducted in dim red light. NVOC-biotin-OMe was dissolved in dimethylformamide (DMF) to a concentration 1 mM and diluted to 100 μM with phosphate-buffered saline pH 7.4. In order to remove any contaminants having high affinity for avidin, 2 ml of the NVOC-biotin-OMe solution was mixed with 1 ml of packed streptavidin-Sepharose-4B resin (SIGMA) which had been washed thoroughly to remove any non-covalently bound avidin. After stirring for three hours, the resin was removed by centrifugation followed by filtration (0.2 micron nylon filter).
Microtiter wells (Beckman EIA plates) were treated for 1 hr with 200 μl of 0.5 μg/ml of streptavidin in 10 mM sodium bicarbonate buffer (pH 9.6). […] The wells were then washed with PBS/Tween 20 and incubated for 1 hr at room temperature with 200 μl of PBS containing ^3 H-biotin (30 Ci/mmol, New England Nuclear). The wells were then washed with PBS/Tween and treated for 30 minutes at room temperature with 200 μl of 10% trichloroacetic acid in water. The radioactivity in 100 μl was then determined by liquid scintillation counting.

streptavidin [5] = target: T2, streptavidin; assay: Scanning fluorescence imaging of Fluorescein-Biotin binding to streptavidin immobilized on a slide; details: 1 μM Fluorescein-Biotin, 20 minutes
Protocol: The microscope slide of Example I having NVOC-biotin covalently attached via a caproic-propyl spacer was illuminated and processed as in Example J, except that after preincubation with the PBS/BSA/Tween 20 solution, the surface was treated with 10 μg/ml solution of Streptavidin (in PBS/BSA/Tween 20) for 40 minutes at room temperature, followed by incubation with a 1 μM solution of Fluorescein-Biotin (5-(N-((5-(N-(6-(biotinoyl)amino) hexanoyl)amino)pentyl)thioureidyl)fluorescein, in PBS, pH 7.4) for 20 minutes. The resulting slide was then washed, dried, and examined using a scanning fluorescence microscope as described above.

avidin or streptavidin = details: cited from earlier work

COc1cc(COC(=O)N2C(=O)N[C@@H]3[C@H](CCCCC(=O)Oc4ccc([N+](=O)[O-])cc4)SC[C@@H]32)c([N+](=O)[O-])cc1OC [NVOC-biotin-ONP, N-1'-(6-nitroveratryloxycarbonyl)-biotin para-nitrophenyl ester]
result of illumination (HPLC) [1]: converted to biotin-ONP upon illumination; also recorded: converted to Biotin-ONP by the illumination

N=C1NC2CSC(CCCCC(=O)O)C2N1 (stereo not drawn) [Iminobiotin]
Affinity (Ka) (Avidin [2]): 10^11 M^-1

O=C(CCCC[C@@H]1SC[C@H]2[C@@H]1NC(=O)N2C(=O)OCc1cc2c(cc1[N+](=O)[O-])OCO2)Oc1ccc([N+](=O)[O-])cc1 [NPOC-biotin-ONP, N-1'-(6-nitropiperonyloxycarbonyl)-biotin para-nitrophenyl ester]
streptavidin binding upon photodeprotection (fluorescence image) (streptavidin [3]): spatially-localized streptavidin binding

COC(=O)CCCC[C@@H]1SC[C@H]2[C@@H]1NC(=O)N2C(=O)OCc1cc(OC)c(OC)cc1[N+](=O)[O-] [NVOC-biotin-OMe, N-1'-(6-nitroveratryloxycarbonyl)-biotin methyl ester]
affinity for avidin (Avidin [4]; after illumination in solution): high affinity | effectiveness in blocking the subsequent binding of 3H-biotin (Avidin [4]; illuminated (IL caged biotin), compared with biotin): nearly as effective as biotin | effect on the subsequent binding of 3H-biotin (Avidin [4]; non-illuminated, concentrations as high as 10^-5 M): no significant effect | affinity for avidin (Avidin [4]; prior to illumination): low affinity; also recorded: very low affinity

COC(=O)CCCCC1SCC2NC(=O)N(C(=O)OC)C21 (stereo not drawn) [3'-N-methoxy-carbonylbiotin methyl ester]
Affinity (Ka) (Avidin [2]): 10^9 M^-1

O=C(CCCCCNC(=O)CCCC[C@@H]1SC[C@@H]2NC(=O)N[C@@H]21)NCCCCCNC(=S)Nc1ccc2c(c1)C(=O)OC21c2ccc(O)cc2Oc2cc(O)ccc21 [Fluorescein-Biotin, 5-(N-((5-(N-(6-(biotinoyl)amino)hexanoyl)amino)pentyl)thioureidyl)fluorescein]
binding of Fluorescein-Biotin to immobilized streptavidin (fluorescence image) (streptavidin [5]): high fluorescence intensity

COC(=O)CCCCC1SCC2C1NC(=O)N2C(=O)OC (stereo not drawn) [1'-N-methoxy-carbonylbiotin methyl ester]
Affinity (Ka) (Avidin [2]): 10^7 M^-1

CN(CCCNC(=O)CCCC[C@@H]1SC[C@@H]2NC(=O)N[C@@H]21)CCCNc1ccc(N=[N+]=[N-])cc1[N+](=O)[O-] [photobiotin]
effect of carboxylate-terminus derivatization on binding to avidin or streptavidin (avidin or streptavidin): does not significantly reduce binding to avidin or streptavidin

O=C(O)CCCC[C@@H]1SC[C@@H]2NC(=O)N[C@@H]21 [Biotin, reference compound]
result of illumination (HPLC) [1]: unaffected by the illumination
